Experimental data published in patent US20250188079A1, “INHIBITING CYCLIC AMP-RESPONSIVE ELEMENT-BINDING PROTEIN (CREB)” (Forma Therapeutics, Inc., priority 2019, published 2025).

These compounds were tested against CBP (Homo sapiens (Human), UniProt Q92793) (assay: HTRF biochemical assay for CBP activity (TR-FRET, bromodomain)). Conditions: geometric mean, 10-point 3-fold dilution 33 μM to 1.7 nM, read-out: BROMO IC50 TRF TB CBP (μM gmean).
Type: binding
Procedure: Example 1: HTRF Biochemical Assay for CBP Activity
The assay was performed in a final volume of 6 μL in assay buffer containing 50 mM Hepes (pH 7.5, (0.5M Hepes, pH 7.5 solution; Teknova H1575)), 0.5 mM GSH, 0.01% BGG (0.22 p M filtered, Sigma, G7516-25G), 0.005% BSA (0.22 μM filtered, EMD Millipore Corporation, 126575) and 0.01% Triton X-100 (Sigma, T9284-10L). Nanoliter quantities of 10-point, 3-fold serial dilution in DMSO were pre-dispensed into 1536 assay plates (Corning, #3724BC) for a final test concentration of 33 μM to 1.7 nM, top to lowest dose, respectively. 3 μL of 2×Protein and 3 μL of 2×Peptide Ligand were added to assay plates (pre-stamped with compound). Plates were incubated for varying times at room temperature prior to measuring the signal. TR-FRET (Time-Resolved Fluorescence Resonance Energy Transfer) was measured on the PHERAstar (BMG, equipped with HTRF optic module [337/520/490]) or on the Envision (PerkinElmer, equipped with the TRF Laser unit, TRF dual mirror D400/D505 and emission filters M520 and M495). Data were reported as percent inhibition compared with control wells based on the following equation: % inh=1−((TR-FRET ratio−AveLow)/(AveHigh−AveLow)) where TR-FRET ratio=(Fluorescence at 520 nm/Fluorescence at 490 nm)*10000), AveLow=average TR-FRET ratio of no enzyme control (n=32), and AveHigh=average TR-FRET ratio of DMSO control (n=32). IC50 values were determined by curve fitting of the standard 4 parameter logistic fitting algorithm included in the Activity Base software package: IDBS XE Designer Model205. Data is fitted using the Levenburg Marquardt algorithm. As set forth in Table 2 below, an IC50 value of greater than or equal to 0.001 μM and less than or equal to 0.01 μM is marked “++++”; a value greater than 0.01 μM and less than or equal to 0.1 μM is marked “+++”; a value greater than 0.1 μM and less than or equal to 1 μM is marked “++”; and a value greater than 1 μM and less than 1000 μM is marked “+.” Compounds that were not tested in a particular assay are marked “NT.”

CBP, sequence (Q92793 1085-1192): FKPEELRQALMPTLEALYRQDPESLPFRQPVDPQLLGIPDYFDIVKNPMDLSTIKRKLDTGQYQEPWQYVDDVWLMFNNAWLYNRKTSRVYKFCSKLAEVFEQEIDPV

Compound	IC50 [µM]
COC(=O)N1CCc2ccc3c(nc([C@H]4CC[C@H](C(=O)O)CC4)n3[C@@H](C)[C@@H](O)c3ccccc3)c2C1 [Compound 92]	0.001 to 0.01
COC(=O)N1CCc2ccc3c(nc(-c4ccc(C(=O)O)cc4)n3[C@@H](C)Cn3cc(Cl)cn3)c2C1 [Compound 132]	0.001 to 0.01
COC(=O)N1CCc2c([C@@H]3CCOC3)cc3c(nc([C@H]4CC[C@H](C(=O)O)CC4)n3[C@H](C)Cc3ccccc3)c2C1 [Compound 44]	0.001 to 0.01
COC(=O)N1CCc2ccc3c(nc(C4CCC4)n3C[C@@H](C(=O)O)c3ccccc3)c2C1 [Compound 157]	0.001 to 0.01
COC(=O)N1CCc2ccc3c(nc([C@H]4CCCOC4)n3C[C@H](C(=O)O)c3ccccc3)c2C1 [Compound 89]	0.001 to 0.01
(1S,3S)-3-[3-[(2S)-2-(3,4-difluorophenyl)propyl]-8-(methoxycarbonyl)-3H,6H,7H,8H,9H-imidazo[4,5-h]isoquinolin-2-yl]cyclohexane-1-carboxylic acid [Compound 29]	0.001 to 0.01
COC(=O)N1CCc2ccc3c(nc(N4CCC(C(=O)O)CC4)n3[C@@H](C)Cc3ccc(F)c(F)c3)c2C1 (single isomer, unassigned) [Compound 23]	0.001 to 0.01
COC(=O)N1CCc2ccc3c(nc(-c4ccncc4)n3[C@@H](C)Cc3ccccc3)c2C1 [Compound 109]	0.001 to 0.01
COC(=O)N1CCc2ccc3c(nc([C@H]4CC[C@H](OC)CC4)n3C[C@H](C(=O)O)c3ccccc3)c2C1 [Compound 1]	0.001 to 0.01
COC(=O)N1CCc2ccc3c(nc(C4CCCCC4)n3[C@@H](C)C[C@H]3CC[C@H](C(=O)O)CC3)c2C1 [Compound 48]	0.001 to 0.01
COC(=O)N1CCc2ccc3c(nc([C@H]4CC[C@H](C(=O)O)CC4)n3[C@H](C)Cc3c(F)cccc3F)c2C1 [Compound 95]	0.001 to 0.01
(1S,3S)-3-[3-[(2S)-1-(3,4-difluorophenyl)propan-2-yl]-8-(methoxycarbonyl)-3H,6H,7H,8H,9H-imidazo[4,5-h]isoquinolin-2-yl]cyclohexane-1-carboxylic acid [Compound 60]	0.001 to 0.01
COC(=O)N1CCc2cc(CC(=O)O)c3c(nc(C4CCCCC4)n3CCc3ccccc3)c2C1 [Compound 158]	0.001 to 0.01
COC(=O)N1CCc2ccc3c(nc(C4CCN(S(C)(=O)=O)CC4)n3[C@H](C)Cn3cc(Cl)cn3)c2C1 [Compound 110]	0.001 to 0.01
COC(=O)N1CCc2ccc3c(nc([C@H]4CC[C@H](S(N)(=O)=O)CC4)n3[C@@H](C)Cc3ccccc3)c2C1 [Compound 97]	0.001 to 0.01
COC(=O)N1CCc2ccc3c(nc(N4CCC(C(=O)O)CC4)n3[C@@H](C)Cn3cc(C(F)(F)F)cn3)c2C1 [Compound 46]	0.001 to 0.01
COC(=O)N1CCc2ccc3c(nc(N4CCC(C(=O)O)CC4)n3[C@@H](C)Cc3cc(F)cc(F)c3)c2C1 [Compound 45]	0.001 to 0.01
COC(=O)N1CCc2ccc3c(nc([C@@H]4CCC[C@@H](C(=O)O)C4)n3[C@@H](C)Cc3ccc(F)c(F)c3)c2C1 [Compound 143]	0.001 to 0.01
COC(=O)N1CCc2ccc3c(nc(N4CCN(C(=O)O)CC4)n3[C@H](C)Cc3ccccc3)c2C1 [Compound 54]	0.001 to 0.01
COC(=O)N1CCc2ccc3c(nc([C@H]4CC[C@H](C(=O)O)CC4)n3[C@H](C)CC3CCCCC3)c2C1 [Compound 114]	0.001 to 0.01
COC(=O)N1CCc2ccc3c(nc(N4CCCCC4)n3C[C@@H](CC(=O)O)c3ccc(F)c(F)c3)c2C1 [Compound 25]	0.001 to 0.01

Next, values leading:

IC50 [µM]	Compound
0.01 to 0.1	COC(=O)N1CCc2ccc3c(nc([C@H]4CC[C@H](C(=O)O)CC4)n3[C@H](C)Cc3ccc(F)c(OC)c3)c2C1 [Compound 286]
0.01 to 0.1	COC(=O)N1CCc2ccc3c(nc([C@H]4CC[C@H](C(=O)O)CC4)n3C[C@@H]3CCc4ccccc4C3)c2C1 [Compound 211]
0.01 to 0.1	COC(=O)N1CCc2ccc3c(nc(C4CCCCC4)n3[C@H](C)C[C@H]3CC[C@H](C(=O)O)CC3)c2C1 [Compound 237]
0.01 to 0.1	COC(=O)N1CCc2ccc3c(nc(C4CCCCC4)n3[C@H](C)C[C@@H]3CCCC[C@H]3C(=O)O)c2C1 [Compound 251]
0.1 to 1	COC(=O)N1CCc2ccc3c(nc(-c4ccc(C(=O)O)c(OC)c4)n3[C@H](C)Cc3ccccc3)c2C1 [Compound 321]
0.01 to 0.1	COC(=O)N1CCc2ccc3c(nc(C4CCCCC4)n3C[C@H]3CCCC[C@H]3C(=O)O)c2C1 [Compound 187]
0.01 to 0.1	COC(=O)N1CCc2c(C(=O)O)cc3c(nc(N4CCCCC4)n3C[C@H](C)c3ccccc3)c2C1 [Compound 247]
0.01 to 0.1	COC(=O)N1CCc2ccc3c(nc(C4CCCCC4)n3[C@H](Cc3ccccc3)C(=O)O)c2C1 [Compound 206]
0.01 to 0.1	COC(=O)N1CCc2cc(C(=O)O)c3c(nc(C4CCCCC4)n3CCc3ccccc3)c2C1 [Compound 181]
0.1 to 1	COC(=O)N1CCc2ccc3c(nc(-c4ccncc4)n3[C@H](C)Cc3ccccc3)c2C1 [Compound 326]
0.1 to 1	COC(=O)N1CCc2ccc3c(nc([C@@H]4CCC[C@@H](C(=O)O)C4)n3C(C)Cc3ccccc3)c2C1 (stereo in doubt) [Compound 298, (1R,3R)-3-[8-(methoxycarbonyl)-3-[(2R)-1-phenylpropan-2-yl]-3H,6H,7H,8H,9H-imidazo[4,5-h]isoquinolin-2-yl]cyclohexane-1-carboxylic acid]
0.01 to 0.1	COC(=O)N1CCc2ccc3c(nc([C@H]4CCC[C@H](C(=O)O)C4)n3C[C@H]3CC[C@H](OC)CC3)c2C1 [Compound 255]
1 to 1000	COC(=O)N1CCc2ccc3c(nc(C4CCN(S(=O)(=O)NC(C)=O)CC4)n3[C@H](C)Cc3ccccc3)c2C1 [Compound 348]
0.01 to 0.1	COC(=O)N1CCc2ccc3c(nc(-c4ccc(C(C)(C)C(=O)O)cc4)n3[C@@H](C)Cn3cc(Cl)cn3)c2C1 [Compound 258]
0.01 to 0.1	COC(=O)N1CCc2ccc3c(nc(-c4ccc(C(=O)O)c(F)c4)n3[C@H](C)Cc3ccccc3)c2C1 [Compound 280]
0.01 to 0.1	COC(=O)N1CCc2ccc3c(nc([C@H]4CCC[C@H](C(=O)O)C4)n3Cc3cccc(Cl)n3)c2C1 [Compound 225]
0.01 to 0.1	COC(=O)N1CCc2ccc3c(nc([C@H]4CC[C@H](C(=O)O)CC4)n3[C@H](C)C[C@H]3CC[C@H](OC)CC3)c2C1 [Compound 287]
0.01 to 0.1	COC(=O)N1CCc2c([C@H]3CCOC3)cc3c(nc([C@H]4CC[C@H](C(=O)O)CC4)n3[C@H](C)Cc3ccccc3)c2C1 [Compound 201]
0.01 to 0.1	COC(=O)N1CCc2ccc3c(nc([C@H]4CC[C@H](C(=O)O)CC4)n3[C@@H](C)Cc3cnccn3)c2C1 [Compound 186]
0.01 to 0.1	COC(=O)N1CCc2ccc3c(nc(C4CCCCC4)n3C[C@@H](C(=O)O)c3cc(F)ccc3OC)c2C1 [Compound 240]
0.01 to 0.1	COC(=O)N1CCc2ccc3c(nc([C@@H]4CCC[C@H](C(=O)O)C4)n3[C@H](C)Cc3ccccc3)c2C1 (single isomer, unassigned) [Compound 233]
0.1 to 1	COC(=O)N1CCc2ccc3c(nc([C@H]4CCC[C@H](C(=O)O)C4)n3[C@H](C)Cc3ccccc3)c2C1 [Compound 344]
0.01 to 0.1	COC(=O)N1CCc2ccc3c(nc([C@H]4CC[C@H](C(=O)O)CC4)n3[C@H](C)[C@H](O)c3ccccc3)c2C1 [Compound 276]
0.01 to 0.1	COC(=O)N1CCc2ccc3c(nc(C4CCCCC4)n3[C@@H](C)C[C@@H]3CCCC[C@H]3C(=O)O)c2C1 [Compound 210]
